In US20090029996A1, “Pyridazin-3(2H)-One Derivatives And Their Use As Pde4 Inhibitors” (priority 2004, published 2009):
pIC50: −log10 of the molar value.

Target: PDE4 (Homo sapiens, UniProt Q07343)
Experiment: PDE4 Assay Procedure ([3H]-cAMP SPA)
Type: biochemical
Settings: 15 nM [3H]-cAMP, 1 hour at room temperature, SPA beads; read-out: HPDE4B or IC50 PDE4
Procedure: Compounds to be tested were resuspended in DMSO at a stock concentration of 1 mM. […] These dilutions were done in 96-well plates. In some cases, plates containing diluted compounds were frozen before being assayed. In these cases, the plates were thawed at room temperature and stirred for 15 minutes.
Ten microliters of the diluted compounds were poured into a “low binding” assay plate. […] The reaction was initiated by adding ten microliters of a solution containing PDE4. The plate was then incubated under stirring for 1 hour at room temperature. After incubation the reaction was stopped with 50 microlitres of SPA beads, and the reaction was allowed to incubate for another 20 minutes at room temperature before measuring radioactivity using standard instrumentation.
The reaction mixture was prepared by adding 90 ml of H2O to 10 ml of 10× assay buffer (500 mM Tris pH 7.5, 83 mM MgCl2, 17 mM EGTA), and 40 microlitres 1 μCi/μL [3H]-cAMP. SPA beads solution was prepared by adding 500 mg to […] H2O for a final concentration of 20 mg/ml beads and 18 mM zinc sulphate.

PDE4, sequence (Q07343 324-700 limits assumed): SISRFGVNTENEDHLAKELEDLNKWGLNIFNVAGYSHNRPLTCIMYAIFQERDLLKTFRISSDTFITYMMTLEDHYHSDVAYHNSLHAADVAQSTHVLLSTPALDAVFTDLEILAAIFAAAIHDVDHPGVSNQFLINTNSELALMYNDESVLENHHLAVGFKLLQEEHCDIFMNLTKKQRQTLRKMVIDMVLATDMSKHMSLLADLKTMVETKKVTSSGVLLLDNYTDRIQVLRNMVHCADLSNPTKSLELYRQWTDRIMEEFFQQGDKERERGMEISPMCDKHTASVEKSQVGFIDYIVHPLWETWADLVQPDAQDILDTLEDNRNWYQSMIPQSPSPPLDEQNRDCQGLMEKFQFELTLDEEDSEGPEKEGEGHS

Compound | pIC50
CCn1nc(-c2ccccc2)c(C(=O)OCOC(=O)C(C)(C)C)c(Nc2cnccc2C)c1=O [Example 26, [(2,2-dimethylpropanoyl)oxy]methyl 1-ethyl-5-[(4-methylpyridin-3-yl)amino]-6-oxo-3-phenyl-1,6-dihydropyridazine-4-carboxylate] | 8.64
CCn1nc(-c2ccccc2)c(C(=O)OCOC(=O)C(C)(C)C)c(Nc2cncc3ccccc23)c1=O [Example 31, [(2,2-Dimethylpropanoyl)oxy]methyl 1-ethyl-5-(isoquinolin-4-ylamino)-6-oxo-3-phenyl-1,6-dihydropyridazine-4-carboxylate] | 10.15
CCn1nc(-c2ccc(C)cc2)c(C(=O)OCOC(=O)C(C)(C)C)c(Nc2cccnc2)c1=O [Example 68, [(2,2-Dimethylpropanoyl)oxy]methyl 1-ethyl-3-(4-methylphenyl)-6-oxo-5-(pyridin-3-ylamino)-1,6-dihydropyridazine-4-carboxylate] | 8.24
CCn1nc(-c2ccccc2)c(C(=O)OCOC(=O)C(C)(C)C)c(Nc2cccnc2)c1=O [Example 23, [(2,2-Dimethylpropanoyl)oxy]methyl 1-ethyl-6-oxo-3-phenyl-5-(pyridin-3-ylamino)-1,6-dihydropyridazine-4-carboxylate] | 9.03
CCn1nc(-c2ccccc2)c(C(=O)OCC(=O)OCc2ccccc2)c(Nc2cccnc2)c1=O [Example 16, 2-(Benzyloxy)-2-oxoethyl 1-ethyl-6-oxo-3-phenyl-5-(pyridin-3-ylamino)-1,6-dihydropyridazine-4-carboxylate] | 9.66
CCOC(=O)COC(=O)c1c(-c2ccsc2)nn(CC)c(=O)c1Nc1cnccc1C [Example 122, 2-Ethoxy-2-oxoethyl 1-ethyl-5-[(4-methylpyridin-3-yl)amino]-6-oxo-3-(3-thienyl)-1,6-dihydropyridazine-4-carboxylate] | 8.47
CCCC(=O)OCOC(=O)c1c(-c2ccccc2)nn(CC)c(=O)c1Nc1cccnc1 [Example 17, (Butyryloxy)methyl 1-ethyl-6-oxo-3-phenyl-5-(pyridin-3-ylamino)-1,6-dihydropyridazine-4-carboxylate] | 8.44
CCn1nc(-c2ccccc2)c(C(=O)OC2OC(=O)c3ccccc32)c(Nc2cccnc2)c1=O (stereo not drawn) [Example 18, 3-Oxo-1,3-dihydro-2-benzofuran-1-yl 1-ethyl-6-oxo-3-phenyl-5-(pyridin-3-ylamino)-1,6-dihydropyridazine-4-carboxylate] | 8.68
CCn1nc(-c2ccccc2)c(C(=O)OC(C)OC(=O)OC2CCCCC2)c(Nc2cnccc2C)c1=O (stereo not drawn) [Example 76, 1-{[(Cyclohexyloxy)carbonyl]oxy}ethyl 1-ethyl-5-[(4-methylpyridin-3-yl)amino]-6-oxo-3-phenyl-1,6-dihydropyridazine-4-carboxylate] | 8.34
CCn1nc(-c2ccccc2)c(C(=O)OCOC(C)=O)c(Nc2cccnc2)c1=O [Example 19, (Acetyloxy)methyl 1-ethyl-6-oxo-3-phenyl-5-(pyridin-3-ylamino)-1,6-dihydropyridazine-4-carboxylate] | 7.96
CCOC(=O)OC(C)OC(=O)c1c(-c2ccccc2)nn(CC)c(=O)c1Nc1cnccc1C (stereo not drawn) [Example 27, 1-[(Ethoxycarbonyl)oxy]ethyl 1-ethyl-5-[(4-methylpyridin-3-yl)amino]-6-oxo-3-phenyl-1,6-dihydropyridazine-4-carboxylate] | 8.04
CCn1nc(-c2ccccc2)c(C(=O)OC(C)OC(=O)OC2CCCCC2)c(Nc2cccnc2)c1=O (single isomer, unassigned; (-)) [Example 132, (−)-1-{[(Cyclohexyloxy)carbonyl]oxy}ethyl 1-ethyl-6-oxo-3-phenyl-5-(pyridin-3-ylamino)-1,6-dihydropyridazine-4-carboxylate] | 9.52
CCn1nc(-c2ccccc2)c(C(=O)OCCl)c(Nc2cncc3ccccc23)c1=O [Example 164, Chloromethyl 1-ethyl-5-(isoquinolin-4-ylamino)-6-oxo-3-phenyl-1,6-dihydropyridazine-4-carboxylate] | 10.00
CCn1nc(-c2cccc(C)c2)c(C(=O)OCOC(=O)C(C)(C)C)c(Nc2cccnc2)c1=O [Example 35, [(2,2-Dimethylpropanoyl)oxy]methyl 1-ethyl-3-(3-methylphenyl)-6-oxo-5-(pyridin-3-ylamino)-1,6-dihydropyridazine-4-carboxylate] | 8.66
CCn1nc(-c2ccccc2)c(C(=O)OCc2oc(=O)oc2C)c(Nc2cnccc2C)c1=O [Example 142, (5-Methyl-2-oxo-1,3-dioxol-4-yl)methyl 1-ethyl-5-[(4-methylpyridin-3-yl)amino]-6-oxo-3-phenyl-1,6-dihydropyridazine-4-carboxylate] | 8.92
